US20230227476A1, “GALLIUM-SALOPHEN ANTIMICROBIAL COMPOUNDS AND METHODS OF USE THEREOF” (priority 2020, published 2023)
Several values for one entry are separate records, joined by “and”; a condition that tells them apart may be missing. Equal values may be shown once. Entries after “also recorded” stand apart in the source; their conditions may differ.

Columns and labels:
HasAp [1] = molecular target: T1, HasAp (Pseudomonas aeruginosa, UniProt G3XD33); assay: Binding affinity to HasAp by fluorescence quenching; details: for Kd: read-out: KD (nM), binding affinities of ligands to HasAp, fluorescence quenching, 1 μM apo-HasAp, 20 mM sodium phosphate pH 7.4, 25° C.; for binding to HasAp weaker than heme: relative to heme
Procedure: Binding Affinity Determination by Fluorescence Quenching. Binding affinities were determined on an ISS K2 multifrequency fluorometer in L-format using 1 cm quartz cuvettes. To a 1 μM solution of apo-HasAp in 20 mM sodium phosphate buffer (pH 7.4, 25° C.) was titrated ligand of interest. Emission spectra were recorded (300-500 nm) following excitation at 295 nm. The decrease in maximum emission was plotted against the ligand concentration (accounting for dilution) and fit to one-site binding using GraphPad Prism 8.
Determine binding affinities (KD) by FQ. KD values of all synthesized compounds are calculated by FQ using previously described methods. Binding affinities are determined in a final volume of 200 μL in black flat-bottom 96-well plates using microplate reader. HasAp concentration is kept at 1.0 μM in Tris-HCl buffer (20 mM, pH 8.0). Inhibitors solvated in DMSO are added across a concentration range of 0.01 to 100 μM. The HasAp excitation (295 nm) emission spectrum is recorded from 300-500 nm. The KD values are calculated from plots of total binding vs. ligand concentration, where total binding corresponds to the fraction of binding sites represented by the decrease in fluorescence at the maximum emission (332 nm). All experiments are performed in triplicate.

HasAp [2] = molecular target: T1, HasAp; assay: Circular dichroism thermal denaturation of HasAp; details: circular dichroism at 222 nm, 10 μM HasAp
Procedure: Circular Dichroism. Circular dichroism experiments were performed on a Jasco J-810 spectropolarimeter using 1 mm quartz cuvettes. All samples were recorded with 10 μM HasAp in 10 mM potassium phosphate (pH 7.4) at 25° C. from 190 to 260 nm at a scan rate of 50 nm/min, with each spectrum representing 5 accumulations. Data were acquired at […] resolution and 10 nm bandwidth. The mean residue ellipticity (degrees cm^2 dmol^−1) was calculated using CDPRO software as recommended by Jasco. Thermal denaturation studies were performed over a temperature range of 20-90° C. at 222 nm. Melting temperatures were determined by fitting denaturation data to a Boltzmann-Sigmoidal distribution in GraphPad Prism 8.

[3] = tested on: Has signaling cascade (hasR promoter); assay: hasR-lacZ β-galactosidase transcriptional reporter assay; format: cell-based, Pseudomonas aeruginosa; details: for transcriptional activation of the hasR promoter (Has signaling): 1 μM pre-formed HasAp complex, relative to heme (holo-HasAp)
Procedure: Transcriptional Reporter Assay. The chromosomal fusions of the PhasR-lacZ and promoterless lacZ gene were previously constructed and used to report on transcriptional activation of the Has signaling cascade. For all β-gal assays, strains were grown overnight in 50 mL LB broth with shaking at 37° C. Cells were harvested by centrifugation and resuspended in M9 media. Strains were then inoculated at A600=0.05 in triplicate in 25 mL of M9 minimal medium and cultured for 3 h to deplete bacterial iron stores. Growth cultures were then supplemented with 1 μM of either holo-HasAp, GaPPIX-HasAp, FeSal-HasAp or GaSal-HasAp. Aliquots (1 mL) at 0 (just prior to supplementation), 2 and 5 h post supplementation were harvested and assayed for […] activity as described previously.
Testing new GaSal analogs (KD<1 μM) for inhibition of heme sensing by transcriptional reporter assays. Transcriptional reporter assays to determine inhibition of the dependent CSS cascade are performed. It was previously shown that GaSal-HasAp inhibits transcriptional activation of the has operon (FIG. 10B). Furthermore, as the deletion of hasR attenuates virulence, inhibition of the signaling pathway combined with decreased heme uptake is a viable therapeutic strategy. PAO1 hasR-lacZ cultures are grown under iron limiting conditions in defined media (M9 or SSM) pelleted and washed to remove exogenous HasAp. Cells are resuspended to a final OD600 of 0.05 and supplemented with 1.0 μM HasAp reconstituted with heme or selected GaSal derivatives. Samples are removed at various times (0.5-5 h) and assayed for β-Gal activity and corrected for differences in OD600. Competition assays are also performed in the presence of varying heme and salophen concentrations.

HasAp [4] = molecular target: T1, HasAp; assay: Saturation transfer difference NMR in PAO1 ΔhasAp supernatant; format: binding; details: GaSal 1 mM, HasAp 10 μM, PAO1 ΔhasAp supernatant
Procedure: (§1) Saturation Transfer Difference NMR. PAO1 ΔhasAp was cultured overnight from a single colony in LB Broth. The cells were harvested by centrifugation and resuspended in M9 Minimal Media. 10 mL of M9 were inoculated at A600˜0.05 and grown for 3 h. Cell-free supernatant was obtained by centrifugation and subsequent filter-sterilization by a […] syringe filter. Supernatant was then used as the solvent for subsequent STD experiments. Final sample volume contained 600 μL of supernatant with or without 10 μM HasAp (as a negative control) and 5% D2O for solvent locking.
(§2) The STD experiments were performed at 25° C. on an Agilent DD2 500 MHz spectrometer. The vendor supplied pulse sequences, dpfgse_satxfer.c was used, the on- and off-resonance fids are subtracted in-place through phase-cycling, to yield only the difference fid. Selective saturation was performed for 2.5 s and consisted of 50 ms Gaussian pulses separated by a 1-ms delay at a field strength of 50 Hz. […]
(§3) Determine the binding mode of GaSal and top derivatives by STD-, ^1H-^15N HSQC-NMR, and HDX-MS. […] Following incubation (4 h) 4,4-dimethyl-4-silapentane-1-sulfonic acid (DSS, 3 μL in D20) is added as internal standard and spectra recorded as reported. […] Combined chemical shift differences between the apo and each of the titration points are calculated using the following equation: […]

HasAp [5] = assay: as above; format: binding, Pseudomonas aeruginosa; details: 1H NMR, 24 hr
Procedure: as §1, §2, §3

[6] = tested on: P. aeruginosa PAO1 and mutants; assay: Growth curves / antibacterial activity in M9 minimal medium; format: cell-based, Pseudomonas aeruginosa; details: M9 minimal media, 96-well plate
Procedure: Growth Curves. P. aeruginosa strains were grown overnight in 50 mL LB Broth with shaking at 37° C. Cells were harvested by centrifugation and resuspended in M9 minimal medium. Strains were then inoculated at A600=0.05 in 10 mL M9 minimal medium and grown for 3 h to deplete bacterial iron stores. Cultures were then plated in 96-well plates (Costar clear, flat-bottom with lid, Corning Inc) at A600≈0.05 to a final volume of 200 μL in M9 medium. Supplements (2 μL) were added as 100× stock solutions. Growth curves were recorded at 600 nm with a Biotek Synergy™ HT plate reader over 16 h of growth with shaking at 37° C. To account for background absorbance, blank wells were prepared with the same supplements but only M9 medium without culture. The blank wells were subtracted from the average of three growth wells per condition.

P. aeruginosa (PiuA) = details: cited from earlier work

T1 sequence (G3XD33 entry or part of it): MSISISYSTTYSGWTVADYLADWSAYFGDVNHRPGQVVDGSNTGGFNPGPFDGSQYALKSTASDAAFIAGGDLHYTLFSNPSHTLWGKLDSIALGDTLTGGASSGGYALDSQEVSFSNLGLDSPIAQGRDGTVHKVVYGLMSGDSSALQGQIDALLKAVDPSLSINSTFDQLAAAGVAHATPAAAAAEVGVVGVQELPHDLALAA

## C=CC1=C(C)c2cc3[nH]c(cc4nc(cc5[nH]c(cc1n2)c(C)c5CCC(=O)O)C(CCC(=O)O)=C4C)c(C)c3C=C.[Fe+3] [Heme]
HasAp [1]
  Kd: 350 ± 50 nM
HasAp [2]
  melting temperature of HasAp: > 90 °C

## Oc1ccccc1C=Nc1ccccc1N=Cc1ccccc1O.[Ga+3] [GaSal, GaSalophen Nitrate]
HasAp [1]
  Kd: 1110 ± 220 nM
  binding to HasAp weaker than heme: ~3 fold
[3]
  transcriptional activation of the hasR promoter (Has signaling): inhibited the holo-HasAp activation of the cell surface signaling cascade; also recorded: inhibition of transcriptional activation relative to heme or GaPPIX; also recorded: decreased transcriptional activation relative to heme
[3]; at 5 hours
  β-galactosidase production: increased β-galactosidase when compared to FeSal
HasAp [2]
  melting temperature of HasAp: 65 °C
HasAp [4]
  STD NMR saturation transfer from HasAp: saturation transfer among all protons of GaSal
HasAp [5]
  stability in PAO1 ΔhasAp supernatant: still intact after 24 hr

## C=CC1=C(C)c2cc3[nH]c(cc4nc(cc5[nH]c(cc1n2)c(C)c5CCC(=O)O)C(CCC(=O)O)=C4C)c(C)c3C=C.[Ga+3] [GaPPIX, Gallium protoporphyrin IX]
HasAp [1]
  Kd: 280 ± 30 nM
[6]
  growth of P. aeruginosa PAO1: inhibits growth
[3]
  transcriptional activation of the hasR promoter (Has signaling): no inhibition of transcriptional activation relative to heme; also recorded: increased (2 h) or similar transcriptional activation to heme

## Oc1ccccc1C=Nc1ccccc1N=Cc1ccccc1O.[Fe+3] [FeSal, FeSal Chloride]
HasAp [1]
  Kd: 1100 nM and 1050 nM
  binding to HasAp weaker than heme: ~3 fold
[3]
  transcriptional activation of the hasR promoter (Has signaling): inhibited the holo-HasAp activation of the cell surface signaling cascade; also recorded: inhibition of transcriptional activation relative to heme or GaPPIX; also recorded: decreased transcriptional activation relative to heme

## CC(C)(O/N=C(\C(=O)N[C@@H]1C(=O)N2C(C(=O)[O-])=C(C[N+]3(CCNC(=O)c4ccc(O)c(O)c4Cl)CCCC3)CS[C@H]12)c1csc(N)n1)C(=O)O [Cefiderocol]
P. aeruginosa (PiuA); at 10×MIC
  resistance rates: < 7×10^−9
P. aeruginosa (PiuA); mutations with a deficiency in PiuA
  increase in MIC: ~20 fold
